Laboratory results from article PMC5469273, “Discovery of Novel Small-Molecule Inhibitors of LIM Domain Kinase for Inhibiting HIV-1” (Journal of Virology, 2017).

Columns and labels:
[1] = target: ROCK2 (Homo sapiens, UniProt O75116); experiment: Kinase profiling (Reaction Biology): ROCK2
[2] = target: MEK1 (Homo sapiens, UniProt Q02750); experiment: Kinase profiling (Reaction Biology): MEK1
[3] = target: FGFR1 (Homo sapiens, UniProt P11362); experiment: Kinase profiling (Reaction Biology): FGFR1
[4] = test system: Rev-CEM-GFP-Luc cells; conditions: 4 h treatment; all concentrations tested up to 200 μM
[5] = test system: Vero cells; conditions: up to 100 μM R10015
[6] = test system: CXCR4; experiment: Surface staining of CXCR4 on CEM-SS T cells; format: cell-based, human; conditions: 100 μM, 1 h
[7] = target: FLT3 (Homo sapiens, UniProt P36888); experiment: Kinase profiling (Reaction Biology): FLT3
[8] = target: AKT2 (Homo sapiens, UniProt P31751); experiment: Kinase profiling (Reaction Biology): AKT2
[9] = target: NEK1 (Homo sapiens, UniProt Q96PY6); experiment: Kinase profiling (Reaction Biology): NEK1
[10] = target: PDGFRb (Homo sapiens, UniProt P09619); experiment: Kinase profiling (Reaction Biology): PDGFRb
[11] = in vitro; conditions: human
[12] = test system: resting CD4 T cells; experiment: FITC-phalloidin staining of F-actin after SDF-1; conditions: 100 μM pretreatment, FITC-phalloidin flow cytometry
[13] = test system: HSV-1; experiment: HSV-1 plaque assay in Vero cells; format: cell-based, herpes simplex virus 1
[14] = target: EPHA3 (Homo sapiens, UniProt P29320); experiment: Kinase profiling (Reaction Biology): EPHA3
[15] = target: TESK1 (Homo sapiens, UniProt Q15569); experiment: Kinase profiling (Reaction Biology): TESK1
[16] = target: WEE1 (Homo sapiens, UniProt P30291); experiment: Kinase profiling (Reaction Biology): WEE1
[17] = test system: HIV-1(Env); format: cell-based
[18] = target: PKCa (Homo sapiens, UniProt P17252); experiment: Kinase profiling (Reaction Biology): PKCa
[19] = target: JAK3 (Homo sapiens, UniProt P52333); experiment: Kinase profiling (Reaction Biology): JAK3
[20] = target: c-MET (Homo sapiens, UniProt P08581); experiment: Kinase profiling (Reaction Biology): c-MET
[21] = test system: cofilin serine 3 phosphorylation; experiment: Western blotting for cofilin serine 3 phosphorylation in CEM-SS T cells; conditions: 100 μM, time course
[22] = target: BRAF (Homo sapiens, UniProt P15056); experiment: Kinase profiling (Reaction Biology): BRAF
[23] = target: c-Src (Homo sapiens, UniProt P12931); experiment: Kinase profiling (Reaction Biology): c-Src
[24] = target: SGK1 (Homo sapiens, UniProt O00141); experiment: Kinase profiling (Reaction Biology): SGK1
[25] = target: PKA (Homo sapiens, UniProt P17612); experiment: Kinase profiling (Reaction Biology): PKA
[26] = test system: HIV-1(VSV G); format: cell-based; conditions: 100 μM
[27] = target: PAK2 (Homo sapiens, UniProt Q13177); experiment: Kinase profiling (Reaction Biology): PAK2
[28] = target: TAOK1 (Homo sapiens, UniProt Q7L7X3); experiment: Kinase profiling (Reaction Biology): TAOK1
[29] = target: Aurora A (Homo sapiens, UniProt O14965); experiment: Kinase profiling (Reaction Biology): Aurora A
[30] = test system: phosphorylation of PAK2; experiment: Western blotting for PAK2 phosphorylation in CEM-SS T cells; conditions: 100 μM, time course
[31] = target: TLK1 (Homo sapiens, UniProt Q9UKI8); experiment: Kinase profiling (Reaction Biology): TLK1
[32] = test system: Jurkat T cells; experiment: SDF-1-mediated chemotaxis assay (transwell); conditions: Homo sapiens, 2 h, read-out: IC50, inhibition of Jurkat T cell chemotaxis, SDF-1 40 ng/ml, 2 h, transwell
[33] = test system: HIV-1(NL4-3); experiment: microbe, parasite or virus in culture; format: cell-based; conditions: Human immunodeficiency virus 1, NL43; pretreated 1 h, HIV-1(NL4-3) 3 h, washed, 48 h; luciferase; read-out: IC50, inhibition of HIV
[34] = target: PIM2 (Homo sapiens, UniProt Q9P1W9); experiment: Kinase profiling (Reaction Biology): PIM2
[35] = target: JNK1 (Homo sapiens, UniProt P45983); experiment: Kinase profiling (Reaction Biology): JNK1
[36] = test system: HIV-1(NL4-3); format: cell-based

FLT3, sequence (P36888 27-993): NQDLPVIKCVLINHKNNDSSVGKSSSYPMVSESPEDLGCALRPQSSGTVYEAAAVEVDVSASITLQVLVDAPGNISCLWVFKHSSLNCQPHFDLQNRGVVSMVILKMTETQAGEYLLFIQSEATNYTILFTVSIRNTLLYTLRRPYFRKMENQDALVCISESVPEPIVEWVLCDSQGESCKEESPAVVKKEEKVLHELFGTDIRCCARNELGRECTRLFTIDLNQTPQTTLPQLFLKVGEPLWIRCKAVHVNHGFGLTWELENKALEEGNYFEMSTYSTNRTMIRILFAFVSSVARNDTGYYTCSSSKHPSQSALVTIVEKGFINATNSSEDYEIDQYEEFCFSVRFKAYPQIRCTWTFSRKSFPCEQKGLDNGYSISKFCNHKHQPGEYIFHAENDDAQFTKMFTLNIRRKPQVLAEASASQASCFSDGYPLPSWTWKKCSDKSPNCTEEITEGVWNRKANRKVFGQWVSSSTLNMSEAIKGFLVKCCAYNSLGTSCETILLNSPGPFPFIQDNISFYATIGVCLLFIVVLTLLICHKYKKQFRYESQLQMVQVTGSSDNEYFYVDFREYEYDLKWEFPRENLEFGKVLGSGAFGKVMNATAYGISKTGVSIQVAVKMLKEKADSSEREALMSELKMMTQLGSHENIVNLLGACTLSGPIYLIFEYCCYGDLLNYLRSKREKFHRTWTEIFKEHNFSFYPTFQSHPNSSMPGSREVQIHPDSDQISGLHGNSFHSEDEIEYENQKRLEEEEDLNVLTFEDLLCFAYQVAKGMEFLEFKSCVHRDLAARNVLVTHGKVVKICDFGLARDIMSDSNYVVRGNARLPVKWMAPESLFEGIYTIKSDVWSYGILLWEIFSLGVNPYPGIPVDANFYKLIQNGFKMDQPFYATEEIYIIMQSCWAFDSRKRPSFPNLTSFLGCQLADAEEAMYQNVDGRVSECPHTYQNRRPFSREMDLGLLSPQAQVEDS
ROCK2, sequence (O75116 whole entry): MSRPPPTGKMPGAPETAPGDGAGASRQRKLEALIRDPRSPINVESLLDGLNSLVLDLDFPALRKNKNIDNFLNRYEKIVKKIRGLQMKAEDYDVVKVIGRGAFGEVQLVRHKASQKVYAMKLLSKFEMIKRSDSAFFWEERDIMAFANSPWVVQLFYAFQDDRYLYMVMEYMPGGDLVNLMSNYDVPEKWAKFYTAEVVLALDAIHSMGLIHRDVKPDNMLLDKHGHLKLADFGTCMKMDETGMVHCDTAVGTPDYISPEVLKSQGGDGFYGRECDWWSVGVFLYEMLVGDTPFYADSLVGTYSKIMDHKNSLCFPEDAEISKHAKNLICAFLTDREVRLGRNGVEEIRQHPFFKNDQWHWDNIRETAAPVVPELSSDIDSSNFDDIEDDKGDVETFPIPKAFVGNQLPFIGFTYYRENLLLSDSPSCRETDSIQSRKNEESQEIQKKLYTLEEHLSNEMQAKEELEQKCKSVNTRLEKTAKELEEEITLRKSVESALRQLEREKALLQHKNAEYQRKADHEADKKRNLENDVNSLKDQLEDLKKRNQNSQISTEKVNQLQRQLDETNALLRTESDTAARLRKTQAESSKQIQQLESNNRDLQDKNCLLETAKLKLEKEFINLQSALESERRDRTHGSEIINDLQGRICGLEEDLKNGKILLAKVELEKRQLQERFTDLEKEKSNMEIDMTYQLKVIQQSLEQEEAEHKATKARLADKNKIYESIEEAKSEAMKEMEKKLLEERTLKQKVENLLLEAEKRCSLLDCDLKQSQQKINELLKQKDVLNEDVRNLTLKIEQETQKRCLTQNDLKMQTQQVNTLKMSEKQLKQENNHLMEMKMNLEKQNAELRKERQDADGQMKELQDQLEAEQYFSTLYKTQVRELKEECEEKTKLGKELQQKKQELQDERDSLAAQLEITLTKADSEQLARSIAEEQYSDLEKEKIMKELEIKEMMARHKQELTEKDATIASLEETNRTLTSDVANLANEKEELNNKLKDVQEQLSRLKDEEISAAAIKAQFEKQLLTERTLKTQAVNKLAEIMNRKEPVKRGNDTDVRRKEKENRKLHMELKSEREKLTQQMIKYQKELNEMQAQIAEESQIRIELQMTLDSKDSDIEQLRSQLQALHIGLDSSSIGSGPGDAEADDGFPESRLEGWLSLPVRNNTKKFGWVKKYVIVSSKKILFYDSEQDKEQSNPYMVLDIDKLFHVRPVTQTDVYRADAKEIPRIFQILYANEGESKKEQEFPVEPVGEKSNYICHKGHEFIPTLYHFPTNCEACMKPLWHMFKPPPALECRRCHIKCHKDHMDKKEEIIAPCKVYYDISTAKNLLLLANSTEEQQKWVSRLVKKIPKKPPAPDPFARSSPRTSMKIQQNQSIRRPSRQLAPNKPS
BRAF, sequence (P15056 whole entry): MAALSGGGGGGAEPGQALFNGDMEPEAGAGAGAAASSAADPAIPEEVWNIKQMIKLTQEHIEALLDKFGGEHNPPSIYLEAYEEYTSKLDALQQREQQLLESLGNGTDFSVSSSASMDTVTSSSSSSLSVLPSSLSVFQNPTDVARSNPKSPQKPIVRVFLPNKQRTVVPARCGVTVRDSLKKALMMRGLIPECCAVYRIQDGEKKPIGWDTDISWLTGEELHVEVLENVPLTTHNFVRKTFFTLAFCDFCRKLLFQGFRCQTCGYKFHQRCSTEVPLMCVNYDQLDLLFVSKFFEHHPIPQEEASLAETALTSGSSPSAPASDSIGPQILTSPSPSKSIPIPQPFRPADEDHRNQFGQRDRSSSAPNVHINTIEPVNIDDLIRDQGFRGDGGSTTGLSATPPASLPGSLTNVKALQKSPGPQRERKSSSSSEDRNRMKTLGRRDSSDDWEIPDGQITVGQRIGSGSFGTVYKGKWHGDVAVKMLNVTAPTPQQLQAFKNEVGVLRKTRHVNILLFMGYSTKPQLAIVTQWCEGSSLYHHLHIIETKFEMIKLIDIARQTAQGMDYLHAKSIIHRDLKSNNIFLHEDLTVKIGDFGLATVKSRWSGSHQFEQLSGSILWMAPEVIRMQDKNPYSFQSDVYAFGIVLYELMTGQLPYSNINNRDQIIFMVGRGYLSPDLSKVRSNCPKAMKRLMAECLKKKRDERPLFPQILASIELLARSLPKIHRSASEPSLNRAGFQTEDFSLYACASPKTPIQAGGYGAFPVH
NEK1, sequence (Q96PY6 whole entry): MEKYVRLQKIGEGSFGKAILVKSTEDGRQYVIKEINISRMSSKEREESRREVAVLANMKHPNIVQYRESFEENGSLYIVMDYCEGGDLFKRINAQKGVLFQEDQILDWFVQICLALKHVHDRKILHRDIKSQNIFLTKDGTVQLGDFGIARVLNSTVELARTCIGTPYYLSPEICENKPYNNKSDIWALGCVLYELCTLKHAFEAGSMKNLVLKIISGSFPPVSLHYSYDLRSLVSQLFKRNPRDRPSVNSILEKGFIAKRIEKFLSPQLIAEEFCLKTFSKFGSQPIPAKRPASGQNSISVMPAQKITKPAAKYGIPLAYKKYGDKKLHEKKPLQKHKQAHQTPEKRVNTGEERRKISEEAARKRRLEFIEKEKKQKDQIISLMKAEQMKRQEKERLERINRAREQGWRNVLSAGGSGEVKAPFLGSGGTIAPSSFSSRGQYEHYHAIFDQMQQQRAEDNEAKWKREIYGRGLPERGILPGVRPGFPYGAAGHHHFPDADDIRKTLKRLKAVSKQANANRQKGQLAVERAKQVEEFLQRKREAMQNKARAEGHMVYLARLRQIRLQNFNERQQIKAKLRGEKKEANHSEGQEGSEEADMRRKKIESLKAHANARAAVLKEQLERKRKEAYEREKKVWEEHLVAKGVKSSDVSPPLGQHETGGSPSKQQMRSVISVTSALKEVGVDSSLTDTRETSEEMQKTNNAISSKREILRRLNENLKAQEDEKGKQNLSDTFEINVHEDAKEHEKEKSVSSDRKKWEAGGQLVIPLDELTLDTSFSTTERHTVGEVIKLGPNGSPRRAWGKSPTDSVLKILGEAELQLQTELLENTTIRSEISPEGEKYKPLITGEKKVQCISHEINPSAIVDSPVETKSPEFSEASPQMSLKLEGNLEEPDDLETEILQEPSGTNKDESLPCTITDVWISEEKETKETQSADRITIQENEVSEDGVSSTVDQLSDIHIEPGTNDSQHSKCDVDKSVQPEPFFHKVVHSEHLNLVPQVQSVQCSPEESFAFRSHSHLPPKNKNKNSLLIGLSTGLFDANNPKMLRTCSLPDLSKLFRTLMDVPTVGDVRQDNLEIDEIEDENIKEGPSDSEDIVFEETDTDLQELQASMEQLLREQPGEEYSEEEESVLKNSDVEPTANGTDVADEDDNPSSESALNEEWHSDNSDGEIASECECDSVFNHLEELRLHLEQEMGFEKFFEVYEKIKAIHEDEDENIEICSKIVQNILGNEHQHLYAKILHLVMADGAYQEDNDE

## COC(=O)c1ccc2[nH]c(C3CCN(c4ncnc5[nH]cc(Cl)c45)CC3)nc2c1 [Compound R10015, Methyl 2-(1-(5-chloro-7H-pyrrolo[2,3-d]pyrimidin-4-yl)piperidin-4-yl)-1H-benzo[d]imidazole-5-carboxylate]
[1]
  activity at 1 µM: 29.5%
[1]; read-out: inhibition of ROCK2
  inhibition at 1 µM: ~70%
[2]
  activity at 1 µM: 75.6%
[3]
  activity at 1 µM: 86.5%
[4]
  cytotoxicity: no detectable cytotoxicity
[5]
  drug toxicity: No drug toxicity
[6]
  surface expression of CXCR4: did not alter
[7]
  activity at 1 µM: 32.2%
[7]; read-out: inhibition of FLT3
  inhibition at 1 µM: ~68%
[8]
  activity at 1 µM: 73.1%
[9]
  activity at 1 µM: 67.2%
[10]
  activity at 1 µM: 78.6%
[11]
  viability at 100 µM: 89.2%
[12]
  SDF-1-mediated actin polymerization: markedly depressed
[13]
  inhibition of HSV-1 (viral plaques): inhibition
[14]
  activity at 1 µM: 91.1%
[15]
  activity at 1 µM: 90.2%
[16]
  activity at 1 µM: 97.2%
[17]
  p24 release (virion release): inhibited
[18]
  activity at 1 µM: 47.5%
[19]
  activity at 1 µM: 61.1%
[20]
  activity at 1 µM: 82.1%
[21]
  cofilin serine 3 phosphorylation: drastic inhibition
[22]
  activity at 1 µM: 91.9%
[23]
  activity at 1 µM: 92.4%
[24]
  activity at 1 µM: 61%
[25]
  activity at 1 µM: 24%
[25]; read-out: inhibition of protein kinase A (PKA)
  inhibition at 1 µM: ~76%
[26]
  inhibition of early steps of VSV G-pseudotyped HIV: minimally inhibited
[27]
  activity at 1 µM: 98.2%
[28]
  activity at 1 µM: 54%
[29]
  activity at 1 µM: 60.3%
[30]
  phosphorylation of PAK2: not affected
[31]
  activity at 1 µM: 98.5%
[32]
  IC50: ~10 µM
[33]
  IC50: 14.9 µM
[34]
  activity at 1 µM: 97.6%
[35]
  activity at 1 µM: 95.2%
[36]; 100 μM, pretreated 1 h, HIV-1(NL4-3) 3 h, washed, 48 h, viable cells only, paired DMSO controls 1.76-3.37%
  Infectivity (percentage of GFP+ cells): 0.43%
[36]; at nontoxic dosages, […], Fig. 1C and 2
  X4 HIV infection in screening: blocked
